One block for each compound: values may come before it.
Tests used:
[1] = target: T1, human A1 adenosine receptor (hA1AR) (Homo sapiens, UniProt P30542); conditions: at 10 μM; [3H]36; CHO cells expressing hA1AR; ref Tosh et al.[9]; cited from earlier work
T1 sequence (P30542 1-326): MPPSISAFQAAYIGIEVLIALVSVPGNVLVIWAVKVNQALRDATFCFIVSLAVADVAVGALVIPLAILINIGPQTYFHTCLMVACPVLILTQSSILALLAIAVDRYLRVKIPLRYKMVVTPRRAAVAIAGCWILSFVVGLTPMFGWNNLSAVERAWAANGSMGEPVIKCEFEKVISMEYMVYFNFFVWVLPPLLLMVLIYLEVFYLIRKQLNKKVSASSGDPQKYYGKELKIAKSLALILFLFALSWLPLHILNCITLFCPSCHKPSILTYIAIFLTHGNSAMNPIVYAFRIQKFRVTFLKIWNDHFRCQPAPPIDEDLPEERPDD

[2] = target: human A2A adenosine receptor (hA2AAR) (Homo sapiens, UniProt P29274); conditions: at 10 μM; [3H]37; HEK293 cells expressing hA2AAR; ref Tosh et al.[9]; cited from earlier work
human A3AR = target: T2, human A3AR (Homo sapiens, UniProt P0DMS8); experiment: Inhibition of forskolin-stimulated cAMP production in A3AR-expressing CHO cells; assay type: cell-based; conditions: inhibition of forskolin-stimulated cAMP at 10 μM, NECA as reference standard
T2 sequence (P0DMS8 1-318): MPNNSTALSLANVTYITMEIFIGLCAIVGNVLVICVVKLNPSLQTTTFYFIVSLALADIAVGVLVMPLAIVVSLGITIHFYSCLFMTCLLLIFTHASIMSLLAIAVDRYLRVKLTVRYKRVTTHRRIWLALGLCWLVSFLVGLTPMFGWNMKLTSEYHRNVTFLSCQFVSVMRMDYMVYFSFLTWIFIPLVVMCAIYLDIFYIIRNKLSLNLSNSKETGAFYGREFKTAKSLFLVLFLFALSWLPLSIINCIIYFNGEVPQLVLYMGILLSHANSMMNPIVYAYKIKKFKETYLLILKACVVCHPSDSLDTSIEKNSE

[3] = target: T3, human A3 adenosine receptor (hA3AR) (Homo sapiens, UniProt P0DMS8); experiment: Radioligand binding at human A3AR; conditions: for Selectivity for hA3AR in comparison to A1 and A2AARs (in words): inhibition curves, Figure 1; for Affinity at the A3AR (in words): binding
T3 sequence (P0DMS8 1-318): T2 sequence (P0DMS8 1-318)

[4] = target: T1, human A1 adenosine receptor (hA1AR); experiment: Radioligand binding at human A1AR; conditions: read-out: % inhibition of radioligand binding, A1

human A2A adenosine receptor (hA2AAR), sequence (P29274 whole entry): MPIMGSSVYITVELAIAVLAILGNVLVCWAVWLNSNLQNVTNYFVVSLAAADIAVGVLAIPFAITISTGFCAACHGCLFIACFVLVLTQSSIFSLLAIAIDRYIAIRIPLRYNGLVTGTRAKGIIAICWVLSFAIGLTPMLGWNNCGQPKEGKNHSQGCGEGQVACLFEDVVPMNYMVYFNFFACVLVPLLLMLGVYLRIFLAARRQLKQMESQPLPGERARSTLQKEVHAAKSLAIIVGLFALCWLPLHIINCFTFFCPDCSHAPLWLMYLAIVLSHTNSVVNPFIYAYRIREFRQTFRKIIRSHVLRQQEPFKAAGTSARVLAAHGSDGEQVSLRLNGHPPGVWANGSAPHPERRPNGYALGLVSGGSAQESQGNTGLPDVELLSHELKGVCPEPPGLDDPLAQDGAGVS

SMILES: CCN1\C(=C/C=C/C=C/C2=[N+](CCCCCC(=O)NCCNC(=O)CCC#Cc3nc(NCc4cccc(Cl)c4)c4ncn([C@H]5[C@H](O)[C@H](O)[C@]6(C(=O)NC)C[C@H]56)c4n3)c3ccc(S(=O)(=O)[O-])cc3C2(C)C)C(C)(C)c2cc(S(=O)(=O)O)ccc21 [Compound 1]
% inhibition of radioligand binding, A1 [1]: (36±3%)

SMILES: CNC(=O)[C@@]12C[C@@H]1[C@@H](n1cnc3c(NCc4cccc(Cl)c4)nc(C#CCCC(=O)NCCNC(=O)CCCCC4SCC5NC(=O)NC54)nc31)[C@H](O)[C@@H]2O (some centres unmarked) [Compound 2]
% inhibition of radioligand binding, A2A [2]: (51±2%)
% inhibition of radioligand binding, A1 [1]: (1±1%)

SMILES: CNC(=O)[C@@]12C[C@@H]1[C@@H](n1cnc3c(NCc4cccc(Cl)c4)nc(C#CCCC(=O)NCCNC(=O)CCCCCNC(=O)CCCCC4SCC5NC(=O)NC54)nc31)[C@H](O)[C@@H]2O (some centres unmarked) [Compound 3]
% inhibition of radioligand binding, A2A [2]: (47±11%)
% inhibition of radioligand binding, A1 [1]: (12±4%)

SMILES: CNC(=O)[C@H]1O[C@@H](n2cnc3c(NCc4cccc(I)c4)ncnc32)[C@H](O)[C@@H]1O [IB-MECA, N^6-(3-iodobenzyl)-5′-N-methylcarboxamidoadenosine, reference compound]
A3AR agonist efficacy (in words) (human A3AR): full agonists

The next lines start with the values.

A3AR agonist efficacy (in words) (human A3AR): highly efficacious agonists
Fold more potent in A3AR binding than higher butyl homologue 17 ([3]; compared with 17): 4 fold
Selectivity for hA3AR in comparison to A1 and A2AARs (in words) [3]: highly selective
SMILES: CNC(=O)[C@@]12C[C@@H]1[C@@H](n1cnc3c(NCc4cccc(Cl)c4)nc(C#CCCCCc4cn(CCNC(C)=O)nn4)nc31)[C@H](O)[C@@H]2O [Compound 15, (1S,2R,3S,4R,5S)-6-(3-Chlorobenzylamino)-(2-(6-(1-(4-acetamidoethyl)-1H-1,2,3-triazol-4-yl)hex-1-ynyl)-9H-purin-9-yl)-2′,3′-dihydroxybicyclo[3.1.0]hexane-1′-carboxylic acid N-methylamide]

Affinity at the A3AR (in words) [3]: only moderate affinity
SMILES: CNC(=O)[C@@]12C[C@@H]1[C@@H](n1cnc3c(NCc4cccc(Cl)c4)nc(C#CCCCCc4cn(CCCCN)nn4)nc31)[C@H](O)[C@@H]2O [Compound 16, (1S,2R,3S,4R,5S)-6-(3-Chlorobenzylamino)-(2-(6-(1-(4-aminobutyl)-1H-1,2,3-triazol-4-yl)hex-1-ynyl)-9H-purin-9-yl)-2′,3′-dihydroxybicyclo[3.1.0]hexane-1′-carboxylic acid N-methylamide]

A3AR agonist efficacy (in words) (human A3AR): partial agonist
Selectivity for hA3AR in comparison to A1 and A2AARs (in words) [3]: highly selective
SMILES: CNC(=O)[C@@]12C[C@@H]1[C@@H](n1cnc3c(NCc4cccc(Cl)c4)nc(C#CCCCCc4cn(C56CC7CC(CC(C7)C5)C6)nn4)nc31)[C@H](O)[C@@H]2O [Compound 18, (1S,2R,3S,4R,5S)-6-(3-Chlorobenzylamino)-(2-(6-(1-(adamantyl)-1H-1,2,3-triazol-4-yl)hex-1-ynyl)-9H-purin-9-yl)-2′,3′-dihydroxybicyclo[3.1.0]hexane-1′-carboxylic acid N-methylamide]

Affinity at the A3AR (in words) [3]: only moderate affinity
SMILES: CNC(=O)[C@@]12C[C@@H]1[C@@H](n1cnc3c(NCc4cccc(Cl)c4)nc(C#CCCCCc4cn(Cc5ccc(-n6sccc6=O)cc5)nn4)nc31)[C@H](O)[C@@H]2O [Compound 19]

inhibition at 10 µM [4]: 0%
SMILES: CNC(=O)[C@@]12C[C@@H]1[C@@H](n1cnc3c(NCc4cccc(Cl)c4)nc(C#CCCCCc4cn(CCCCCCNC(=O)c5ccc(-c6c7ccc(=N)c(S(=O)(=O)O)c-7oc7c(S(=O)(=O)O)c(N)ccc67)c(C(=O)O)c5)nn4)nc31)[C@H](O)[C@@H]2O [Compound 23]

— paper PMC2818678 (Bioorganic & medicinal chemistry, 2009)
